Laboratory results from article PMC9325269, “New Polymethoxyflavones from Hottonia palustris Evoke DNA Biosynthesis-Inhibitory Activity in An Oral Squamous Carcinoma (SCC-25) Cell Line” (Molecules, 2022).
Read-outs that look alike come from different tables or passages of the source. Values belong to the molecule of their own block, whether it stands above or below them.

Columns and labels:
[1] = test system: human tongue squamous carcinoma cells SCC-25; assay: MTT cell viability assay, SCC-25 cells; assay type: cell-based; conditions: read-out: IC50 of viability, SCC-25
Experimental: (§1) The cell viability and proliferation assays were performed on the human tongue squamous cell line (SCC-25). The cells were obtained from ATCC (CRL-1628, American Type Culture Collection, Manassas, VA, USA) and cultured in a 1:1 mixture of DMEM (Dulbecco’s minimal essential medium) and Ham’s F12 medium (Thermo Fisher Scientific, Waltham, MA, USA, 31330038) supplemented with 400 ng/mL hydrocortisone (Sigma-Aldrich, Burlington, MA, USA, H0135), 10% FBS (fetal bovine serum, Thermo Fisher Scientific, Waltham, MA, USA, 10270106), and penicillin–streptomycin solution (Thermo Fisher Scientific, Waltham, MA, USA, 15140122). Furthermore, for the cytotoxicity assay, human skin fibroblasts (CCD25Sk) cultured in DMEM (Thermo Fisher Scientific, Waltham, MA, USA, 41966029) supplemented with 10% FBS and penicillin-streptomycin solution were used. The cells were incubated at 37 °C in the air with 5% CO2. […] MTT (M5655), SDS (L3771), and cisplatin (cPT), which was used as a positive control (P4394), were purchased from Sigma-Aldrich (Burlington, MA, USA).
(§2) The cell viability assay leans on the transformation of yellow tetrazolinum bromide MTT solution to the purple derivative of formazan via succinate dehydrogenase, an enzyme present in viable cells. Cells were cultured (1 × 10^4 per well) on a 96-well plate to receive 70% of their confluency. After 24 h and 48 h of incubation with the studied samples (prepared as DMSO solutions directly before the assay), the cells were washed with PBS (phosphate-buffered saline). Subsequently, the MTT solution was added, and the plates were incubated at 37 °C for 2 h. Then, formazan crystals were dissolved in 200 μL of DMSO with Sorensen’s glycine buffer and were shacked for 10 min.

[2] = test system: normal fibroblasts; assay: MTT cell viability assay, normal fibroblasts; assay type: cell-based, human; conditions: read-out: IC50 of viability, Fibroblasts
Experimental: as §1, §2

[3] = test system: DNA biosynthesis in SCC-25 cells; assay: [3H]-thymidine incorporation (DNA biosynthesis / proliferation) assay; assay type: cell-based; conditions: Homo sapiens; 48 h treatment of SCC-25 cells (as stated in abstract); read-out: DNA biosynthesis-inhibitory activity IC50
Experimental: Considering this fact, an evaluation determining whether the cytotoxicity of the samples was the result of their influence on the biosynthesis of cell DNA was carried out by assessing the capability of intracellular thymidine incorporation.
The proliferation of the tested cells was estimated as [^3H]-thymidine incorporation into the DNA of the cells treated with the studied samples [40]. Firstly, cells (1 × 10^4 per well) were placed in 24-well plates and were allowed to adhere for 24 h. […] After incubation for 24 h and 48 h at 37 °C, the cells were rinsed with PBS and solubilized with 1 mL of 0.1 M NaOH (sodium hydroxide) containing 1% SDS (sodium dodecyl sulfate). Then, radioactivity was recorded in a Liquid Scintillation Analyzer (Perkin-Elmer, Waltham, MA, USA) after correction to 9 mL with scintillation liquid.

[4] = test system: SCC-25 squamous carcinoma cells; assay: Morphological profile of SCC-25 cells (microphotographs); assay type: cell-based, human; conditions: 24 h and 48 h; extracts 100 µg/mL, compounds 100 µM
[5] = test system: melanoma cells; conditions: cited from earlier work
[6] = Homo sapiens, SCC-25, 24 h, MTT, compounds 6.25–200 µM
[7] = Homo sapiens, SCC-25, 48 h, MTT, compounds 6.25–200 µM
[8] = 24 h, MTT, compounds 6.25–200 µM
[9] = 48 h, MTT, compounds 6.25–200 µM

Structure (SMILES): O=C(CC(=O)c1ccccc1)c1ccccc1 [Compound 1, 1,3-diphenylpropane-1,3-dione]
IC50 ([1]; Homo sapiens, SCC-25, 24 h): 40 ± 1.89 µM
IC50 ([1]; Homo sapiens, SCC-25, 48 h): 29.1 ± 1.45 µM
IC50 ([2]; Homo sapiens, Fibroblast, 24 h): > 200 µM
IC50 ([2]; Homo sapiens, Fibroblast, 48 h): > 200 µM
IC50 [3]: 29.1 ± 1.45 µM
morphological profile, cell adhesion and number of cells versus untreated [4]: decreased the number of cells
cell cycle effect [5]: cell-cycle deregulation

IC50 [1, 6]: > 200 µM
IC50 [1, 7]: > 200 µM
Structure (SMILES): O=c1cc(-c2ccccc2)oc2cccc(O)c12 [Compound 2, 5-hydroxy-2-phenyl-4H-chromen-4-one]

Structure (SMILES): COc1ccccc1-c1cc(=O)c2c(O)cccc2o1 [Compound 3, 5-hydroxy-2-(2-methoxyphenyl)-4H-chromen-4-one]
IC50 ([1]; Homo sapiens, SCC-25, 24 h): > 200 µM
IC50 ([1]; Homo sapiens, SCC-25, 48 h): > 200 µM

Structure (SMILES): COc1cccc(OC)c1-c1cc(=O)c2c(O)cccc2o1 [Compound 4, 5-hydroxy-2-(2,6-dimethoxyphenyl)-4H-chromen-4-one]
IC50 ([1]; Homo sapiens, SCC-25, 24 h): > 200 µM
IC50 ([1]; Homo sapiens, SCC-25, 48 h): > 200 µM

Structure (SMILES): COc1ccc(OC)c(-c2cc(=O)c3c(O)cccc3o2)c1OC [Compound 5, 5-hydroxy-2-(2,3,6-trimethoxyphenyl)-4H-chromen-4-one]
IC50 ([1]; Homo sapiens, SCC-25, 24 h): > 200 µM
IC50 ([1]; Homo sapiens, SCC-25, 48 h): > 200 µM

IC50 [1, 6]: > 200 µM
IC50 [1, 7]: > 200 µM
Structure (SMILES): COc1cccc(O)c1-c1cc(=O)c2c(O)cccc2o1 [Compound 6, 5-hydroxy-2-(2-hydroxy-6-methoxyphenyl)-4H-chromen-4-one]

Structure (SMILES): COc1ccc(O)c(-c2cc(=O)c3c(O)cccc3o2)c1OC [Compound 7, 5-hydroxy-2-(6-hydroxy-2,3-dimethoxyphenyl)-4H-chromen-4-one]
IC50 ([1]; Homo sapiens, SCC-25, 24 h): 78.2 ± 3.25 µM
IC50 ([1]; Homo sapiens, SCC-25, 48 h): 40.6 ± 1.65 µM
IC50 ([2]; Homo sapiens, Fibroblast, 24 h): > 200 µM
IC50 ([2]; Homo sapiens, Fibroblast, 48 h): > 200 µM
IC50 [3]: 40.6 ± 1.65 µM
morphological profile, cell adhesion and number of cells versus untreated [4]: decreased the number of cells

Structure (SMILES): N.N.[Cl][Pt][Cl] [cPT, cisplatin, reference compound]
IC50 [1, 8]: 26.1 ± 1.03 µM
IC50 [1, 9]: 7.58 ± 0.37 µM
IC50 [2, 8]: > 200 µM
IC50 [2, 9]: 40.5 ± 2.01 µM
morphological profile, cell adhesion and number of cells versus untreated [4]: decreased the number of cells
